Reference: patent US10738070B2, “Mannose-derived antagonists of FimH useful for treating disease” (Fimbrion Therapeutics, Inc., priority 2016, dated 2020)

Assays:
FimHL = FimHL (Escherichia coli, UniProt P08191); assay: Differential scanning fluorimetry (DSF); type: binding; settings: purified FimHL 10 μM with mannoside 100 μM; mean of two biological replicates
Procedure: Differential scanning fluorimetry (DSF) Purified FimHL (10 μM) in the absence or presence of mannoside (100 μM) was combined with 5× SYPRO Orange in a 50 μl reaction mixture buffered in 20 mM HEPES pH 7.5, 150 mM NaCl (HBS) and 0.4% DMSO. Binding equilibria were established by allowing the reaction mixtures to incubate at 23° C. for 30 min. These reaction mixtures were then placed in 96-well clear-bottom PCR plates and subjected to a melt curve from 20-90° C. in 0.5° C. increments of 15 seconds, each followed by a fluorescence read of the “HEX” channel in a Bio-Rad CFX96 thermocycler (Bio-Rad, Hercules, Calif.). Melt curves were fitted to the Boltzmann equation (y=A2+(A1−A2)/(1+exp((x−xo)/dx)) where xo is the Tm) to determine the melting temperature (Tm) using GraphPad Prism 6 (San Diego Calif.). Melting temperatures are represented as the mean and standard error of two biological replicates, each of which consisted of three technical replicates. Compounds not listed were not tested.

UTI89 bacteria = assay: Biofilm inhibition assay; type: cell-based; settings: read-out: Biofilm prevention IC50
Procedure: Biofilm Assay The biofilm inhibition assay was performed with UTI89 bacteria as previously described (L. Cegelski, J. S. Pinkner, N. D. Hammer, C. K. Cusumano, C. S. Hung, E. Chorell, V. Aberg, J. N. Walker, P. C. Seed, F. Almqvist, M. R. Chapman, S. J. Hultgren Nature Chem. Biol. 2009, 5, 913-919). Compounds not listed were not tested.

FimH = molecular target: T1, FimH (Escherichia coli, UniProt Q1R2J4); assay: Hemagglutination inhibition (HAI) assay with UTI89 bacteria and guinea pig red blood cells; type: cell-based; settings: concentration reducing bacterial agglutination of guinea pig red blood cells by greater than 90%; UTI89 bacteria
T1 construct: endogenous in cells; host or cells: E. coli UTI89 bacteria
Procedure: “HAI or EC>90” is that concentration of the FimH inhibitor/antagonist which reduces the bacterial agglutination of guinea pig red blood cells by greater than 90%.
HAI Assay The hemagglutination inhibition (HAI) assay was performed with UTI89 bacteria and guinea pig red blood cells, as previously described (S. J. Hultgren, W. R. Schwan, A. J. Schaeffer, J. L. Duncan Infect. Immun. 1986, 54, 613-620). Compounds not listed were not tested.

Structure (SMILES) | DSF Melting Temp (FimHL) [°C] | IC50 (UTI89 bacteria) [nM] | HAI titer EC>90 (FimH) [µM]
Cc1cc(-n2cc(-c3cccnc3)nn2)ccc1O[C@H]1O[C@H](CO)[C@@H](O)[C@H](O)[C@@H]1O [Example 2, 2-methyl-4-[4-(pyridin-3-yl)-1H-1,2,3-triazol-1-yl]phenyl α-D-mannopyranoside] | 74.4 | 524 | 0.032
Cc1cc(-n2cc(-c3ccccc3)nn2)ccc1O[C@H]1O[C@H](CO)[C@@H](O)[C@H](O)[C@@H]1O [Example 4, 2-methyl-4-[4-(phenyl)-1H-1,2,3-triazol-1-yl]phenyl α-D-mannopyranoside] | 74.1 | 320 | 0.032
Cc1cc(-c2ccc3ccnc(N)c3c2)ccc1O[C@H]1O[C@H](CO)[C@@H](O)[C@H](O)[C@@H]1O [Example 14, 7-[4′-(α-D-mannopyranosyloxy)-3′-methylphenyl]-isoquinolin-1-amine] | 75.1 | 336 | 0.02
Cc1cc(-c2cccc3c(N)nccc23)ccc1O[C@H]1O[C@H](CO)[C@@H](O)[C@H](O)[C@@H]1O [Example 17, 5-[4′-(α-D-mannopyranosyloxy)-3′-methylphenyl]-isoquinolin-1-amine] | – | – | 0.062
Cc1cc(-c2cccc(-c3nnn[nH]3)c2)ccc1O[C@H]1O[C@H](CO)[C@@H](O)[C@H](O)[C@@H]1O [Example 18, 3-Methyl-3′-(2H-tetrazol-5-yl)[1,1′-biphenyl]-4-yl α-D-mannopyranoside] | – | – | 0.125
Cc1cc(-c2ccc3c(c2)C(=O)NCC3)ccc1OC1OC(CO)C(O)C(O)C1O [Example 21, 3,4-Dihydro-7-[4′-(α-D-mannopyranosyloxy)-3′-methylphenyl]-1(2H)-iso-quinolinone] | 75.0 | 247 | 0.032
CNC(=O)c1cc(C(=O)NCCCCCCNC(=O)CCCCC[N+]2=C(/C=C/C=C/C=C3/c4ccc5ccccc5c4C(C)(C)N3C)C(C)(C)c3ccc4ccccc4c32)cc(-c2ccc(OC3OC(CO)C(O)C(O)C3O)c(C)c2)c1 [Example 22, N^3-(Cyanine5.5)-4′-(α-D-mannopyranosyl)-N^5,3′-dimethyl-[1,1′biphenyl]-3,5-dicarboxamide chloride] | – | – | 2
CNC(=O)c1cc(C(=O)O)cc(-c2ccc(O[C@H]3O[C@H](CO)[C@@H](O)[C@H](O)[C@@H]3O)c(C)c2)c1 [Example 23, 4′-(α-D-mannopyranosyloxy)-3′-methyl-5-[(methylamino)carbonyl]-[1,1′biphenyl]-3-carboxylic acid] | – | – | 0.032
Cc1cc(-c2cncc(C(=O)O)c2)ccc1O[C@H]1O[C@H](CO)[C@@H](O)[C@H](O)[C@@H]1O [Example 24, 5-[4′-(α-D-mannopyranosyloxy)-3′-methylphenyl]-3-pyridinecarboxylic acid] | – | – | 0.25
Cc1cc(-c2cc3[nH]c(=O)[nH]c(=O)c3s2)ccc1O[C@H]1O[C@H](CO)[C@@H](O)[C@H](O)[C@@H]1O [Example 25, 6-[4′-(α-D-mannopyranosyloxy)-3′-methylphenyl]-thieno[3,2-d]pyrimidine-2,4(1H,3H)-dione] | – | – | 0.024
Cc1cc(-c2ccc3ccn(C(C)C)c(=O)c3c2)ccc1O[C@H]1O[C@H](CO)[C@@H](O)[C@H](O)[C@@H]1O [Example 26, 2-isopropyl-7-[4′-(α-D-mannopyranosyloxy)-3′-methylphenyl]-1(2H)-isoquinolinone] | – | – | 0.043
Cc1cc(-c2ccc3c(c2)C(=O)N(C(C)C)CC3)ccc1O[C@H]1O[C@H](CO)[C@@H](O)[C@H](O)[C@@H]1O [Example 27, 2-isopropyl-3,4-Dihydro-7-[4′-(α-D-mannopyranosyloxy)-3′-methylphenyl]-1(2H)-isoquinolinone] | – | – | 0.032
Cc1cc(-n2cc(-c3ccccc3N)nn2)ccc1O[C@H]1O[C@H](CO)[C@@H](O)[C@H](O)[C@@H]1O [Example 28, 2-methyl-4-[4-(2-aminophenyl)-1H-1,2,3-triazol-1-yl]phenyl α-D-mannopyranoside] | – | – | 0.15
Cc1cc(Oc2ccccc2[N+](=O)[O-])c([N+](=O)[O-])cc1O[C@H]1O[C@H](CO)[C@@H](O)[C@H](O)[C@@H]1O [Example 29, 2-[4-(α-D-mannopyranosyloxy)-5-methyl-2-nitrophenoxy]nitrobenzene] | – | – | 1
CC(=O)Nc1ccccc1Oc1cc(C)c(O[C@H]2O[C@H](CO)[C@@H](O)[C@H](O)[C@@H]2O)cc1[N+](=O)[O-] [Example 30, N-(2-[4-(α-D-mannopyranosyloxy)-5-methyl-2-nitrophenoxy]phenyl)acetamide] | – | – | 1.5
CC(=O)Nc1cccc(Oc2cc(C)c(O[C@H]3O[C@H](CO)[C@@H](O)[C@H](O)[C@@H]3O)cc2[N+](=O)[O-])c1 [Example 31, N-(3-[4-(α-D-mannopyranosyloxy)-5-methyl-2-nitrophenoxy]phenyl)acetamide] | – | – | 0.5
Cc1cc(Oc2ccc(C#N)cc2)c([N+](=O)[O-])cc1O[C@H]1O[C@H](CO)[C@@H](O)[C@H](O)[C@@H]1O [Example 32, 4-[4-(α-D-mannopyranosyloxy)-5-methyl-2-nitrophenoxy]benzonitrile] | – | – | 0.5
CC(=O)Nc1ccc(Oc2cc(C)c(O[C@H]3O[C@H](CO)[C@@H](O)[C@H](O)[C@@H]3O)cc2[N+](=O)[O-])cc1 [Example 33, N-(4-[4-(α-D-mannopyranosyloxy)-5-methyl-2-nitrophenoxy]phenyl)acetamide] | – | – | 0.25
Cc1cc(Oc2ccc3ccncc3c2)c([N+](=O)[O-])cc1O[C@H]1O[C@H](CO)[C@@H](O)[C@H](O)[C@@H]1O [Example 34, 7-[4-(α-D-mannopyranosyloxy)-5-methyl-2-nitrophenoxy]isoquinoline] | – | – | 0.125
Cc1cc(Oc2ccccc2C#N)c([N+](=O)[O-])cc1O[C@H]1O[C@H](CO)[C@@H](O)[C@H](O)[C@@H]1O [Example 35, 2-[4-(α-D-mannopyranosyloxy)-5-methyl-2-nitrophenoxy]benzonitrile] | – | – | 1
Cc1cc(Oc2ccc3cccnc3c2)c([N+](=O)[O-])cc1O[C@H]1O[C@H](CO)[C@@H](O)[C@H](O)[C@@H]1O [Example 36, 7-[4-(α-D-mannopyranosyloxy)-5-methyl-2-nitrophenoxy]quinoline] | – | – | 0.5
CS(=O)(=O)c1ccc(-c2ccc(O[C@H]3O[C@H](CO)[C@@H](O)[C@H](O)[C@@H]3O)c(Cl)c2)cc1 [Example 37, 3-chloro-4′-(methylsulfonyl)biphenyl-4-yl α-D-mannopyranoside] | – | – | 0.15
Cc1cc(-c2ccc3cc[nH]c(=O)c3c2)cc(C)c1OC1OC(CO)C(O)C(O)C1O [Example 38, 7-[4′-(α-D-mannopyranosyloxy)-3′,5′-dimethylphenyl]-1(2H)-iso-quinolinone] | – | – | 0.266
CNC(=O)c1cccc(-c2ccc(O[C@H]3O[C@H](CO)[C@@H](O)[C@H](O)[C@@H]3O)c(C#N)c2)c1 [Example 39, 4′-(α-D-mannopyranosyloxy)-3′-cyano-N-methyl-1,1′biphenyl-3-carboxamide] | – | – | 0.188
